{"source": "patent JP2008055197A", "about": "(priority 2007, dated 2008)", "origin": "cited, not measured here", "data": [{"smiles": "O=[N+]([O-])OCC(CO[N+](=O)[O-])O[N+](=O)[O-]", "note": "[ニトログリセリン]", "values": [{"measurement": "solubility in ethyl alcohol, isopropyl alcohol and the like", "setting": "ethyl alcohol, isopropyl alcohol and the like", "value": "溶解する"}, {"measurement": "solubility in water", "setting": "water", "value": "不溶"}]}]}
